From PubChem BioAssay (NCI)
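Step 1: Grow cells in 96-well plates. Step 2: Expose to compound for 48 hours at 5 concentrations. Step 3: Interpolate endpoints linearly; if unreached, use highest concentration. Here, GI50 denotes the concentration required for 50% inhibition of growth. The concentration for full growth arrest is given as TGI.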

These compounds were tested on CCRF-CEM leukemia (assay: DTP human tumour cell line panel, 48 h).

Row | SMILES | TGI [µM] | GI50 [µM]
1 | c1ccc(NCn2cnc3ccccc32)cc1 | > 100 | –
2 | CC1SC(c2ccc(F)cc2)N(NC(=O)C(O)c2ccccc2)C1=O (stereo not given) | > 100 | > 100
3 | Cc1cc2c(C)[nH]nc2c(C(=O)O)c1C | > 100 | –
4 | N#C/C(=C\c1cccc(Cl)c1Cl)c1ccccc1 | > 46.4 | –
5 | COCCOc1ccc(-c2nc3ccc(-c4nc5ccc(N6CCN(C)CC6)cc5[nH]4)cc3[nH]2)cc1 | > 100 | 1.02
6 | COc1ccc(OC)c(N2CC(N)C2=O)c1 (stereo not given) | > 100 | –
7 | O=C(/C=C/c1ccc([N+](=O)[O-])cc1)c1ccc(NCc2nc3ccccc3[nH]2)cc1 | 6.16 | –
8 | Cc1cccc(C)c1NC(=O)CCCC(=O)C1/C(=N/NC(=O)CC#N)CCC/C1=N\NC(=O)CC#N (stereo not given) | > 100 | –
9 | O=c1ccc2ccccc2cc1[O-].O=c1ccc2ccccc2cc1[O-].[O]=[U+2]=[O] | > 100 | 6.14
10 | Cc1ccc(-n2c3nc(=O)[nH]c(=O)c-3cc3cc([N+](=O)[O-])ccc32)cc1 | > 100 | 4.67
11 | COC(=O)C(CCCN1C(=O)c2ccccc2C1=O)C(=O)OC | > 100 | –
12 | COc1nc(NC2OC(COC(C)=O)C(OC(C)=O)C(OC(C)=O)C2OC(C)=O)c2c(OC(C)=O)cc(=O)oc2n1 (stereo not given) | > 100 | –
13 | CC(C)(C)c1cc2c(O)c3cccc4c(=O)c5cccc6c5-c(c34)c2c(c1)c6=O | > 100 | –
14 | Nc1cc(NN=C(c2ccc(O)cc2)c2ccc(O)cc2)c([N+](=O)[O-])cc1[N+](=O)[O-] | 6.13 | 2.54
15 | O=C1C=CC(=O)c2nc3c(cc21)CCC3 | 25.6 | –
16 | O=S(=O)(N/N=C/c1cccc(/C=N/NS(=O)(=O)c2ccccc2)c1)c1ccccc1 | > 100 | –
17 | CCCCN(CCCC)C(=O)C(=O)C(C(=O)c1ccc(OC)cc1)c1ccc(OC)cc1 (stereo not given) | > 100 | –
18 | C=C(C)CCOC(c1ccccc1)(c1ccccc1)c1ccccc1 | > 100 | –
19 | COc1ccc(C)cc1-c1cc(Sc2ccccc2)c(-c2cc(C)ccc2OC)o1 | > 31.6 | –
20 | CC(=O)O/N=C(/C)c1ccccc1O | > 100 | –
21 | CC(=O)OCCOCNC(=S)N/N=C(\C)c1cnccn1 | > 100 | –
22 | O=C(Nc1ccccc1-c1nn(C(=S)Nc2ccccc2)c(=S)n(C(=S)Nc2ccccc2)c1=O)C(F)(F)F | 62.1 | –
23 | O=c1c(-c2ccccc2)c2oc(c1-c1ccccc1)CSCc1cccc(c1)CSC2 | > 100 | –
24 | CN(C)CCn1c2c3ccccc3ccc2c2oc(=O)c3ccccc3c21 | > 100 | –

Each compound was assayed on COLO 205 colon (assay: DTP human tumour cell line panel, 48 h).

Row | SMILES | TGI [µM] | GI50 [µM]
25 | COC(=O)CC(c1ccccc1)C1(c2ccccc2)SCCS1 (stereo not given) | > 290 | –
26 | O=C(/C(=C/c1ccc([N+](=O)[O-])cc1)SCc1ccccc1)c1ccc(Cl)cc1 | 5.11 | 2.14
27 | CCOC(=O)C1=C(C(=O)OCC)C2c3ccccc3C=CN2C(C(=O)OCC)=C(SC)S1 (stereo not given) | > 100 | –
28 | CCCCCCCCCCCCCCCC[N+](C)(C)Cc1ccccc1 | 3.24 | 1.65
29 | CC(=O)NNc1nc(C)c(C(=O)/C=C/c2ccc(NC(C)=O)cc2)s1 | > 100 | –
30 | CCCCCC[C@@H]1CCC2C(CO)[C@@H](O)CC[C@@H]2C1 (stereo not given in full) | 35.1 | –
31 | O=C(O)c1ccc2c(c1C(=O)O)C(=O)OC2(c1ccc(O)cc1)c1ccc(O)cc1 | > 100 | –
32 | NC(=O)c1ccccc1NC(=O)C(=O)C(C(=O)c1ccc(Cl)c(Cl)c1)C1OC(=O)c2ccccc21 (stereo not given) | > 100 | –
33 | N#Cc1c[nH]n2c(N=Nc3ccc(Cl)cc3)c(O)nc12 | > 100 | 29
34 | O=S(=O)(c1ccccc1)N1CCN(S(=O)(=O)c2ccccc2)c2ccccc21 | > 100 | –
35 | S=c1sc2c(n1-c1ccccc1)NC=NC2S (stereo not given) | > 100 | –
36 | CCOC(=O)C1=C(C)N(c2ccc(F)cc2F)[C@]2(C#N)C(O)=C(Cl)C(Cl)=C(O)[C@]12C#N | > 100 | > 100
37 | Cc1ccc(/C=C/C(=O)CCN(C)C)cc1 | 29.4 | –
38 | COc1cc(C2CC(C)(O)Oc3cc4c(cc32)OCO4)cc(OC)c1OC (stereo not given) | 2.92 | –
39 | Cc1ccc(Oc2ccc(C)cc2N)cc1 | > 100 | –
40 | c1ccc(NCn2cnc3ccccc32)cc1 | > 100 | –
41 | Cc1cc2c(C)[nH]nc2c(C(=O)O)c1C | > 100 | –
42 | N#C/C(=C\c1cccc(Cl)c1Cl)c1ccccc1 | > 100 | –
43 | COCCOc1ccc(-c2nc3ccc(-c4nc5ccc(N6CCN(C)CC6)cc5[nH]4)cc3[nH]2)cc1 | 3.05 | 0.371
44 | C/C(=N/Nc1ccc([N+](=O)[O-])cc1[N+](=O)[O-])C(CC(C(=O)NCc1ccccc1)/C(C)=N\Nc1ccc([N+](=O)[O-])cc1[N+](=O)[O-])C(=O)NCc1ccccc1 (stereo not given) | 27.8 | –
45 | N[C@@H]1CCCC[C@@H]1N.O=P([O-])([O-])CN(CCN(CP(=O)([O-])[O-])CP(=O)([O-])[O-])CP(=O)([O-])[O-].[Pt+2] | > 25 | > 25

Row | SMILES | TGI [µM] | GI50 [µM]
46 | COc1ccc(OC)c(N2CC(N)C2=O)c1 (stereo not given) | > 100 | –
47 | O=C(/C=C/c1ccc([N+](=O)[O-])cc1)c1ccc(NCc2nc3ccccc3[nH]2)cc1 | 7.71 | –
48 | Cc1cccc(C)c1NC(=O)CCCC(=O)C1/C(=N/NC(=O)CC#N)CCC/C1=N\NC(=O)CC#N (stereo not given) | > 100 | –
49 | O=c1ccc2ccccc2cc1[O-].O=c1ccc2ccccc2cc1[O-].[O]=[U+2]=[O] | 71.7 | 25.3
50 | Cc1ccc(-n2c3nc(=O)[nH]c(=O)c-3cc3cc([N+](=O)[O-])ccc32)cc1 | 41.6 | 15.6
51 | COC(=O)C(CCCN1C(=O)c2ccccc2C1=O)C(=O)OC | > 100 | –
52 | COc1nc(NC2OC(COC(C)=O)C(OC(C)=O)C(OC(C)=O)C2OC(C)=O)c2c(OC(C)=O)cc(=O)oc2n1 (stereo not given) | > 100 | –
53 | CC(C)(C)c1cc2c(O)c3cccc4c(=O)c5cccc6c5-c(c34)c2c(c1)c6=O | > 100 | –
54 | Nc1cc(NN=C(c2ccc(O)cc2)c2ccc(O)cc2)c([N+](=O)[O-])cc1[N+](=O)[O-] | 4.49 | 1.85
55 | O=C1C=CC(=O)c2nc3c(cc21)CCC3 | 27.7 | –
56 | O=S(=O)(N/N=C/c1cccc(/C=N/NS(=O)(=O)c2ccccc2)c1)c1ccccc1 | > 100 | –
57 | CCCCN(CCCC)C(=O)C(=O)C(C(=O)c1ccc(OC)cc1)c1ccc(OC)cc1 (stereo not given) | > 100 | –
58 | C=C(C)CCOC(c1ccccc1)(c1ccccc1)c1ccccc1 | > 100 | –
59 | COc1ccc(C)cc1-c1cc(Sc2ccccc2)c(-c2cc(C)ccc2OC)o1 | > 31.6 | –
60 | Cn1ccc2c3c(Oc4ccc(NC(N)=O)cc4)ccnc3ccc21 | > 100 | > 100
61 | CC(=O)O/N=C(/C)c1ccccc1O | > 100 | –
62 | CC(=O)OCCOCNC(=S)N/N=C(\C)c1cnccn1 | > 100 | –
63 | O=C(Nc1ccccc1-c1nn(C(=S)Nc2ccccc2)c(=S)n(C(=S)Nc2ccccc2)c1=O)C(F)(F)F | 44.4 | –
64 | O=c1c(-c2ccccc2)c2oc(c1-c1ccccc1)CSCc1cccc(c1)CSC2 | > 100 | –
65 | CN(C)CCn1c2c3ccccc3ccc2c2oc(=O)c3ccccc3c21 | > 100 | –

Each compound was assayed on HCC-2998 colon (assay: DTP human tumour cell line panel, 48 h).

Row | SMILES | TGI [µM] | GI50 [µM]
66 | COC(=O)CC(c1ccccc1)C1(c2ccccc2)SCCS1 (stereo not given) | > 290 | –
67 | O=C(/C(=C/c1ccc([N+](=O)[O-])cc1)SCc1ccccc1)c1ccc(Cl)cc1 | 3.89 | 1.97
68 | CCOC(=O)C1=C(C(=O)OCC)C2c3ccccc3C=CN2C(C(=O)OCC)=C(SC)S1 (stereo not given) | > 100 | –
69 | CCCCCCCCCCCCCCCC[N+](C)(C)Cc1ccccc1 | 2.38 | 0.923
70 | CC(=O)NNc1nc(C)c(C(=O)/C=C/c2ccc(NC(C)=O)cc2)s1 | > 100 | –
71 | CCCCCC[C@@H]1CCC2C(CO)[C@@H](O)CC[C@@H]2C1 (stereo not given in full) | 37 | –
72 | NC(=O)c1ccccc1NC(=O)C(=O)C(C(=O)c1ccc(Cl)c(Cl)c1)C1OC(=O)c2ccccc21 (stereo not given) | > 100 | –
73 | O=S(=O)(c1ccccc1)N1CCN(S(=O)(=O)c2ccccc2)c2ccccc21 | > 100 | –
74 | S=c1sc2c(n1-c1ccccc1)NC=NC2S (stereo not given) | > 100 | –
75 | Cc1csc(-c2nnc(Nc3ccc(Oc4ncccc4-c4ccnc(N)n4)cc3)c3ccccc23)c1 | > 30.2 | 2.54
76 | Cc1ccc(/C=C/C(=O)CCN(C)C)cc1 | 32.1 | –
77 | COc1cc(C2CC(C)(O)Oc3cc4c(cc32)OCO4)cc(OC)c1OC (stereo not given) | 34.8 | –
78 | Cc1ccc(Oc2ccc(C)cc2N)cc1 | > 100 | –
79 | CC1SC(c2ccc(F)cc2)N(NC(=O)C(O)c2ccccc2)C1=O (stereo not given) | > 100 | > 100
80 | Cc1cc2c(C)[nH]nc2c(C(=O)O)c1C | > 100 | –
81 | N#C/C(=C\c1cccc(Cl)c1Cl)c1ccccc1 | > 100 | –
